Experimental data reported in patent US5409956A, “Indan derivative and thromboxane antagonist containing the same” (Zeria Pharmaceutical Co., Ltd., priority 1991, dated 1995).

Legend:
[1] = system: U46619 induced contraction in rat aorta; assay: Inhibitory effect on U46619 induced contraction in rat aorta; assay type: cell-based, SD male rat; conditions: relaxation of contraction by 10^-7 M U46619, rat thoracic aorta, 37° C., logit method
Method: Inhibitory effect on U46619 induced contraction in rat aorta:
The sample was kept at 37° C., bubbled with 95% oxygen gas containing 5% CO2, and suspended in a 10 ml organ bath filled with a Krebs-Henseleit solution at 2 g resting tension. 10^-7 M of U46619 which is a stable active substance of TXA2 was added portionwise. After the contraction responses were stabilized, the test compound was added to the organ bath, and its antagonism was evaluated. A concentration-relaxation curve was obtained, to which was applied a logit method to obtain pIC50 values.

[2] = system: Human platelet aggregation; assay: Human platelet aggregation inhibitory action (in vitro), U46619-induced; assay type: cell-based; conditions: human PRP, approximately 4×10^5 cells/ml, 1 μM U46619, 37° C., Born's method, read-out: IC50 (concentration required for inhibiting the platelet aggregation induced by 1 μM of U46619 by 50%)
Method: Human platelet aggregation inhibitory action (in vitro):
Blood samples were collected from healthy humans. 9 parts by volume of the collected blood was mixed with 1 part by volume of an aqueous 3.8%(W/v) trisodium citrate, and the mixture was subjected to centrifugal separation for collecting the supernatant-to prepare a platelet rich plasma (PRP). A further centrifugation was-performed to separate a platelet poor plasma (PPP). PRP was diluted with PPP to adjust the number of platelets to approximately 4×10^5 cells/ml. Subsequently, 200 micro liters of PRP were added with the […] and 25 micro liters of an equimolar aqueous sodium hydrogencarbonate solution, and stirred for 2 minutes at 37° C. Thereafter, U46619 was added thereto for inducing platelet aggregation. The platelet aggregation was measured in accordance with a Born's method ("Nature", vol 194, page 927 (1962)), and inhibition against the platelet aggregation was examined. The platelet aggregation inhibitory action of the test compounds was expressed as the IC50 value (concentration required for inhibiting the platelet aggregation induced by 1 μM of U46619 by 50%).

Row | IC50 [1] | IC50 [2] | Structure (SMILES)
1 | 427 nM | 2530 nM | O=C(O)COc1ccc(CCNS(=O)(=O)c2ccccc2)cc1 [Control compound, 4-(2-phenylsulfonylaminoethyl)phenoxy acetic acid, reference compound]
2 | 12.9 nM | 720 nM | O=C(O)Cc1ccc2c(c1)CC(CNS(=O)(=O)c1ccccc1)C2 (stereo not shown) [Example 1, [2-(phenylsulfonylaminomethyl)indan-5-yl]acetic acid]
3 | 3.02 nM | 770 nM | O=C(O)Cc1ccc2c(c1)CC(CNS(=O)(=O)c1ccc(Cl)cc1)C2 (stereo not shown) [Example 24, [2-[(4-chlorophenyl)sulfonylaminomethyl)indan-5-yl]acetic acid]
4 | 316 nM | 2450 nM | O=C(O)Cc1ccc2c(c1)CC(CCNS(=O)(=O)c1ccccc1)C2 (stereo not shown) [Example 25, [2-(2-phenylsulfonylaminoethyl)indan-5-yl]acetic acid]
5 | 31.6 nM |  | O=C(O)COc1ccc2c(c1)CC(CNS(=O)(=O)c1ccccc1)C2 (stereo not shown) [Example 29, 2-(phenylsulfonylaminomethyl)indan-5-hydroxyacetic acid]
6 |  | 310 nM | O=C(O)COc1ccc2c(c1)CC(CNS(=O)(=O)c1ccc(Cl)cc1)C2 (stereo not shown) [Example 30, 2-[(4-chlorophenyl)sulfonylaminomethyl)indan-5-hydroxyacetic acid]
7 |  | 850 nM | O=C(O)c1ccc2c(c1)CC(CNS(=O)(=O)c1ccc(Cl)cc1)C2 (stereo not shown) [Example 33, [2-[(4-chlorophenyl)sulfonylaminomethyl]-indan-5-yl]carboxylic acid]
8 |  | 600 nM | O=C(O)c1ccc2c(c1)CC(CCNS(=O)(=O)c1ccc(Cl)cc1)C2 (stereo not shown) [Example 34, [2-[2-(4-chlorophenyl)sulfonylaminoethyl)indan-5-yl]-carboxylic acid]
9 |  | 1120 nM | O=C(O)CCC(=O)c1ccc2c(c1)CC(CNS(=O)(=O)c1ccc(Cl)cc1)C2 (stereo not shown) [Example 40]
